In patent US10961228B2, “JAK1 selective inhibitors” (AstraZeneca AB, priority 2017, dated 2021):

Legend:
[1] = test system: OVA-challenged Brown Norway rat; assay: OVA lung inflammation model, eosinophils in broncho alveolar lavage; type: in vivo; conditions: for reduction of eosinophils in BAL: inhaled DPI, vs OVA/OVA group 3
Method: Brown Norway rats were sensitised and challenged with chicken ovary albumin (OVA) (Clinical and Experimental Allergy, 37 (2007) 973-988). After inhaling an amount of micronized compound within the scope of the present disclosure, the reduction in airway inflammation in the lung of OVA-challenged Brown Norway rat was measured as % reduction of eosinophils in broncho alveolar lavage (BAL) compared to challenged, but untreated rat using the following protocol. As the model control, an i.t. over dose (2*300 μg/kg) of the model reference compound, Budesonide, was used. 74 animals were divided into 8 experimental groups and treated as follows: • Group 1 (Saline/Saline/Air), n=6—Sham (saline) sensitisation at Day0 (S1) and Day7 (S2) and sham (saline) challenged at Day14 (P1). Treatment room air • Group 2 (OVA/Saline/Lactose), n=8—Sensitised at Day0 (S1) and Day7 (S2) with Al(OH)3/OVA mixture followed by the i.t. sham (saline) challenge at Day14 (P1). Treatment DPI Lactose. • Group 3 (OVA/OVA/Lactose), n=12—Sensitised at Day0 (S1) and Day7 (S2) with Al(OH)3/OVA mixture followed by the i.t. OVA challenge at Day14 (P1). […] Treatment i.t. with Budesonide (model reference compound) at 2×300 μg/kg Day14. Twice daily. Prior to start of first sensitisation (S1), the body weight (BW) was recorded and all rats were tail marked with the identification number. The BW was additionally recorded prior to S2 and prior to the termination point (D15). All of the animals' BAL was determined. At the time of termination, the performer(s) (investigator) were blinded to the status of the individual rats, The rats where subcutaneously (s.c.) injected with a mixture of OVA/Al(OH)3 (100 μg OVA:100 mg Alum in 1 ml saline/rat), and intraperitoneally (i.p.) injected with 0.5 ml/rat of B. Pertussis toxin (0.1 μg/ml) at Day 0 and Day 7. Sham sensitisation was performed by s.c. and i.p. injections of isotonic saline with the same volume and strategy. Each exposure system consisted of a flow-past exposure inhalation chamber, rat restraining tubes and a Modified Wright Dust Feed mechanism. Measurements of the aerosol concentration in the inhalation chamber for each dose level was performed by filter sampling at one of the inhalation ports (AP40, 47 mm, Millipore). […] Rats from Group 2 and 3 were exposed to lactose in the restraining tube (Battelle chambers). Target inhaled doses (μg/kg) were calculated assuming exposure duration of 2-10 minutes and a body weight of 250 g using the following formula: The rats were weighed the day prior to OVA challenge. At challenge the rats were anaesthetised with Isoflurane mixture (air and 4% isoflurane) put in supine position with 30-40° angle and instilled with vehicle or compound. This intra-tracheal instillation was performed by using a modified metal cannula with bolus-bulb on the end. Rats were placed in. cages in a supine position with a head up until regaining consciousness. The reference compound was administered twice daily with the second daily administration 6 hours post the first daily administration. Instillation volume: 0.25 mL/rat. Five minutes (5′) before OVA challenge, blood was collected (0.2 ml) from the tongue vein and plasma (60 ul/well) was collected on 96-deepwell plate. The provocation occurred at Day14 (P1) and was applied 2 hours after compound administration. The rats were anaesthetized with Isoflurane mixture (air and 4% isoflurane) put in supine position with 30-40° angle and instilled with the isotonic saline or OVA (0.1 mg/ml). The intra-tracheal instillation was performed. by using a modified metal cannula with bolus-bulb on the end. Rats were placed in cages in a supine position with a head up until regaining consciousness. Sham challenge was performed by i.t. instillation of isotonic saline with the same volume and strategy. Instillation volume: 0.25 ml/rat. At 22 hours post OVA challenge (P1), rats were euthanized with an intraperitoneal injection of 1 ml pentobarbital (50 mg/ml). […]

[2] = biological target: recombinant JAK1 (amino acids 866-1154) (Homo sapiens (Human), UniProt P23458); assay: Enzyme inhibition studies, JAK1 (5 mM ATP, Caliper); type: biochemical
In short: (§1)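 N-terminal GST-fused kinase domains from insect cells, run at 5 mM ATP with inhibitor at 30, 3, 0.3, 0.03, 0.003 and 0 μM final.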

[3] = biological target: recombinant JAK3 (amino acids 781-1124) (Homo sapiens (Human), UniProt P52333); assay: Enzyme inhibition studies, JAK3 (5 mM ATP, Caliper); type: biochemical
In short: as §1

[4] = Plasma drug concentration by LC-MSMS at termination of alopecia areata study; type: in vivo; conditions: 1-2 h after last oral dose at 12.5 mg/kg BW, C3H/HeJ mice
Method: Blood was sampled from behind the eye in EDTA-coated test tubes (Multivette 300, Sarstedt) and kept on ice. Plasma was obtained by centrifugation (4° C., 4000 G, 5 min) and 50 μL transferred to a 96-well NUNC plate and stored at −20° C. until analyzed with regards to drug concentration by LC-MSMS.

recombinant JAK3 (amino acids 781-1124), sequence (P52333 781-1124): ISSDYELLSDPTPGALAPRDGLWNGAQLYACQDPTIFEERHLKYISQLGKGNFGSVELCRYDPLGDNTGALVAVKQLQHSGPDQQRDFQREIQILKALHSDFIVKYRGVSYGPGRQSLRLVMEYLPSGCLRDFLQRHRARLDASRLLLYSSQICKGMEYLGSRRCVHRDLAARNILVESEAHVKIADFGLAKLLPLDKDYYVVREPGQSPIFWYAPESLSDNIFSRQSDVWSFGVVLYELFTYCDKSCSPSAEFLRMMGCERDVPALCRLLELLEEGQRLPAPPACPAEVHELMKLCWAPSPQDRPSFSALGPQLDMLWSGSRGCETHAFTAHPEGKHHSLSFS
recombinant JAK1 (amino acids 866-1154), sequence (P23458 866-1154): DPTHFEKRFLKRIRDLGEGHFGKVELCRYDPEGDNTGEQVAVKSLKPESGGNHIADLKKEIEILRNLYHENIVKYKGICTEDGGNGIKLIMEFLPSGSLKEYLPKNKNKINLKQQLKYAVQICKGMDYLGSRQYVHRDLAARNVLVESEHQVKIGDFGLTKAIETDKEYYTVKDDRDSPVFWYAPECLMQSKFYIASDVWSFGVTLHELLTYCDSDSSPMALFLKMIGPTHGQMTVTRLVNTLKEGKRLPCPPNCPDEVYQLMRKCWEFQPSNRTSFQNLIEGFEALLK

Row | Structure (SMILES) | inhibition of eosinophils ([1]; i.t. over dose 2*300, twice daily Day14 (Group 8)) | IC50 [2] | IC50 [3] | mean plasma exposure (total concentration) [4] | max inhibition of eosinophils ([1]; compared to OVA control (group 3), plateau from the 0.6 μg/kg dose) | reduction of eosinophils in BAL ([1]; lung dose 0.08 μg/kg, not significant) | reduction of eosinophils in BAL ([1]; lung dose 0.11 μg/kg, not significant) | reduction of eosinophils in BAL ([1]; lung dose 0.6 μg/kg, p<0.01) | reduction of eosinophils in BAL ([1]; lung dose 4.76 μg/kg, p<0.01)
1 | CCCC1O[C@@H]2C[C@H]3[C@@H]4CCC5=CC(=O)C=C[C@]5(C)[C@H]4[C@@H](O)C[C@]3(C)[C@]2(C(=O)CO)O1 (stereo partly drawn) [Budesonide, reference compound] | 97% |  |  |  |  |  |  |  | 
2 | COC[C@H](C(=O)Nc1cccc2c(-c3nc(Nc4cccc(S(C)(=O)=O)c4F)ncc3F)c[nH]c12)N1CCN(C)CC1 [Example 35, (R)-N-(3-(5-fluoro-2-(2-fluoro-3-(methylsulfonyl)phenylamino)pyrimidin-4-yl)-1H-indol-7-yl)-3-methoxy-2-(4-methylpiperazin-1-yl)propanamide] |  | < 0.003 µM | > 30 µM | 338 nM | 68% | 7% | 28% | 68% | 61%
